# Test results as given in US11905268B2, “Anthranilic acid derivatives and their use in the treatment of human cancers” (UNIVERSITY OF CENTRAL FLORIDA RESEARCH FOUNDATION, INC., priority 2018, dated 2024).
# Where two headings read alike, the source gives them in different places.
# Tests used:
# L3.6pl cells [1] = assay: cells; format: cell-based; settings: for IC50: Homo sapiens, L3.6pl; for L3.6pl MTC: maximum tolerated concentration where cells are >90% viable
# L3.6pl cells [2] = assay: DFMO/Spd rescue assay in L3.6pl cells; format: cell-based, human; settings: for EC value in DFMO/Spd rescue assay: Table 9, ECx = y: x% effect at y μM
# Protocol: In another example in the DFMO spermidine (Spd) rescue assay an EC38=8 means that the PTI molecule at 8 μM was able to block 38% of the entry of spermidine into DFMO treated L3.6 pl cells after 72 h incubation time at 37° C. Another explanation, is that the PTI was able to disrupt […] of the intracellular trafficking of Spd that leads to cell rescue. […] Since both Ant44 and Spermidine are polyamine-based systems, cells likely use one mode of the polyamine transport (basal or obligate) in each assay.
# (§1) The higher EC value denotes the compound is giving a relative % growth of L3.6 pl cells consistent with inhibiting either Ant44 uptake or blocking the uptake of the rescuing dose of spermidine. Alternatively these compounds may disrupting the intracellular trafficking of Ant44 and spermidine so they cannot reach their intended intracellular target.
# L3.6pl cells [3] = assay: Ant44 assay in L3.6pl cells; format: cell-based, human; settings: Table 9; Ant44 3 μM; ECx = y: x% effect at y μM
# Protocol: For example, in the ANT44 assay an EC48=9 means that the PTI molecule at 9 μM was able to block 48% of the Ant44 entry into L3.6 pl human Pancreatic ductal adenocarcinoma cells after 72 h incubation time at 37° C. Another explanation, is that the PTI was able to disrupt […] of the intracellular trafficking of Ant44 that leads to toxicity. Recall a polyamine transport inhibitor can work at any one (or more than one) of the different steps involved in the multi-step polyamine import and intracellular trafficking process. Blocking the entering spermidine from reaching its intended intracellular target is another way in which these compounds may function.
# as §1
# CHO cells [4] = assay: Cytotoxicity screen in CHO cells
# Protocol: CHO K1 cells were grown in growth medium to 70% confluency and washed in PBS and trypsinized. […] Cells were spun at 100×g for 1 minute and incubated at 37° C. in a humidified CO2 incubator for 24 hours. […] Cellular ATP content was then assayed by adding 3 uL of ATPLite with a Beckman BioRAPTR FRD dispenser and incubated for 10 minutes at room temperature. Plates were spun at 200×g for 1 minute and read on a Perkin Elmer Viewlux multimode plate reader using luminescence mode. This assay was used for testing dose-response of dry powders.
# CHO K1 cells were grown in growth medium to 70% confluency and washed in PBS and trypsinized. Cells were plated in assay medium at 10000 cells/mL for 200 cells per well using a Thermo Multidrop Combi in 20 uL into a white Greiner plate. Cells were spun at 100×g for 1 minute and incubated at 37° C. in a humidified CO2 incubator for 24 hours. […] This was followed by adding by 10 μL of assay medium to all wells with a Beckman BioRAPTR FRD dispenser. The plates were spun at 200×g for 1 minute and incubated at 37° C. in a humidified 5% CO2 incubator for 48 hours. Cellular ATP content was then assayed by adding 20 μL of ATPLite with a Beckman BioRAPTR FRD dispenser and incubated for 10 min at room temperature. Plates were spun at 200×g for 1 minute and read on a Perkin Elmer Envision for multimode plate reader using luminescence mode. Duplicates were run for each compound concentration, and the curves represent the average of the duplicates as percent viability.
# The final compound concentration was either 20 μM or 10 μg/mL (depending upon the compound source). A successful PTI in Assay 1 would block the uptake of the toxic Ant44 probe and rescue the cells back to >90% relative growth vs an untreated control. It was critical to also evaluate the toxicity of the PTI by itself as a toxic PTI would give a false negative in Assay1 (and a false positive in Assay 2). […] Assay 2 then evaluated the ability of the compound to inhibit the uptake of a rescuing dose of Spermidine (Spd, 1 μM) into DFMO-treated CHO cells.
# CHO cells [5] = assay: Ant44 rescue assay in CHO cells (Assay 1); format: cell-based, Chinese hamster
# Protocol: CHO K1 cells were grown in growth medium (RPMI+10% FBS+1×P/S+1% l-glutamine) to 70% confluency, washed in PBS and trypsinized. Cells were plated in assay medium (serum free RPMI+2% FBS+1×l-glutamine+1×P/S+[…] aminoguanidine) at 50000 cells/mL for 200 cells per well in 4 ul using a Thermo Multidrop Combi into a 1536-well white Aurora plate.
# Ant44 is a cytotoxic polyamine, i.e., N^1-(9-anthracenyl)-homospermidine. A non-toxic PTI compound would block entry or intracellular trafficking of the Ant44 toxin and rescue the cells back to high viability. Therefore, this screen tested for compounds which rescued cells from Ant44 toxicity. […] This was followed by adding 10 uL of 10 uM Ant44 (FAC 2 uM) in assay medium with a Beckman BioRAPTR FRD dispenser or 10 uL of cells added in assay medium (positive control).
# [6] = test system: DFMO treated Chinese hamster ovary (CHO) cells; assay: DFMO/spermidine rescue assay in CHO cells (Assay 2); format: cell-based
# Protocol: In the reconfirmation assay compounds were run in quadruplicate. […] A PTI compound is expected to block the entry or disrupt the intracellular trafficking of spermidine and inhibit the ability of spermidine to rescue the growth or viability of DFMO treated cells.
# DFMO/Spermidine assay Here cells were treated with an inhibitor of polyamine biosynthesis (DFMO) and rescued back to high viability by the presence of exogenous polyamine (spermidine). Putative PTI compounds were screened for their ability to block the entry or intracellular trafficking of exogenous spermidine (or otherwise disrupt the intracellular trafficking of spermidine) by measuring cell viability in the presence of DFMO+spermidine+PTI compound. […] This was followed by adding 10 μL of […] and 5 μM spermidine (FAC 5 mM DFMO and 1 μM spermidine) in assay medium with a Beckman BioRAPTR FRD dispenser or 10 μL of 5 mM DFMO added in assay medium (positive control). […] A PTI compound is expected to block the entry or disrupt the intracellular trafficking of spermidine and inhibit the ability of spermidine to rescue the growth or viability of DFMO treated cells Cytotoxicity
# [7] = 72 h, Table 9, read-out: 72 h IC50
# [8] = read-out: IC50 values (toxicity profile)
# [9] = relative growth after 72 h, read-out: L3.6pl IC50
Structure (SMILES),IC50 (L3.6pl cells [1]; [7]) [µM],MTD (L3.6pl cells [1]; Table 9) [µM],EC value in DFMO/Spd rescue assay (L3.6pl cells [2]),EC value in Ant44 (3 μM) assay (L3.6pl cells [3]),also measured
COc1ccccc1C(=O)Nc1ccc(N2CCN(c3cc(Cl)ccc3C)CC2)cc1C(=O)O [drawing 136],29.1 ± 0.03,>5,EC29 = 5 μM,not working as a PTI,
COc1ccc(C(=O)Nc2ccc(N3CCN(c4cc(Cl)ccc4C)CC3)cc2C(=O)O)cc1 [drawing 134],16.8 ± 0.1,8,EC49 = 8 μM,EC21 = 8 μM,
Cl.O=C(Nc1ccc(N2CCNCC2)cc1C(=O)O)c1ccco1,> 50,40,EC10 = 40 μM,EC22 = 40 μM,
O=C(Nc1ccc(N2CCC(Oc3ccccc3)CC2)cc1C(=O)O)c1cc2ccccc2[nH]1,38.3 ± 0.04,10,EC30 = 9 μM,not working as a PTI,
O=C(Nc1ccc(N2CCC(Oc3ccccc3)CC2)cc1C(=O)O)c1ccc(-c2ccc(Cl)cc2)o1,> 1,1,EC6 = 1 μM,Not working,
COc1ccccc1C(=O)Nc1ccc(N2CCN(c3ccccc3)CC2)cc1C(=O)O [ChemDiv F687-0884],,,,,IC50 (L3.6pl cells [1]; [8]): > 38 µM; IC50 (L3.6pl cells [1]; [9]): 46.3 ± 0.02 µM; L3.6pl MTC (L3.6pl cells [1]): 9 µM
COc1ccccc1C(=O)Nc1ccc(N2CCN(c3ccccc3OC)CC2)cc1C(=O)O [ChemDiv F687-0882],,,,,IC50 (L3.6pl cells [1]; [8]): > 38 µM; IC50 (L3.6pl cells [1]; [9]): > 50 µM; L3.6pl MTC (L3.6pl cells [1]): 9 µM
"COc1ccccc1C(=O)Nc1ccc(N2CCN(Cc3ccccn3)CC2)cc1C(=O)O [SBI-0814421, 2-(2-methoxybenzamido)-5-(4-(pyridin-2-ylmethyl)piperazin-1-yl)benzoic acid]",,,,,"IC50 at 48 h (CHO cells [4]; Chinese hamster, CHO K1 cells): > 40 µM; CHO MTD (CHO cells [4]; hamster): >20 µM; IC50 (CHO cells [5]; Cricetulus griseus, CHO, Table 7, read-out: SAR IC50 Ant44 assay): > 40 µM; Active in Ant44 assay? (CHO cells [5]; Table 2, in CHO): No in CHO; L3.6pl MTD (L3.6pl cells [1]; Table 2): 10 µM; L3.6pl MTD (L3.6pl cells [1]; Table 4B): (10) μM; EC50 (L3.6pl cells [2]; Homo sapiens, Table 2, DFMO rescue in L3.6pl): > 10 µM; EC50 (L3.6pl cells [2]; Table 4B, DFMO-spermidine rescue): > 10 µM; activity in DFMO assay ([6]; CHO cells): some level of activity; EC50 ([6]; Cricetulus griseus, CHO, Table 2): 20 µM; IC50 ([6]; Cricetulus griseus, CHO, Table 4B, read-out: DFMO/CHO IC50): 9.5 µM; IC50 ([6]; Cricetulus griseus, CHO, Table 7, read-out: SAR IC50 DFMO assay): 10 µM"
